Like-named read-outs stand apart in the source and are kept apart here.
Experiments:
[1] = system: MIA-PACA2 pancreatic cancer cell lines; experiment: Cell proliferation assay, alternate assay conditions (DAPI fluorescence); assay type: cell-based; settings: Homo sapiens, MIA PaCa-2; for inhibition at 10 µM: * = tested at 10 μM, alternate conditions, MIA-PACA2; for IC50: MIA-PACA2, same assay as the % inhibition (alternate conditions)
Description: Cell lines: Tumor-derived pancreatic cancer cell lines MIA-PACA2 were purchased from ATCC and grown in complete DMEM-High Glucose medium supplemented with penicillin (100 U/mL), streptomycin (100 μg/mL), and 10% heat-inactivated FBS at 37° C. in a humidified incubator with 5% CO2.
Method: Cells are plated at 4000 cells/well density in 96-wells plate. The next day tested small molecules are added to the cells in the final concentration of 10 μM in the presence of 0.3% DMSO and 10% FBS. After small molecules addition, cells are incubated for 4 days at 37° C. in a humidified incubator with 5% CO2. For IC50 value determination, serial dilutions of compounds were added to cells under the same conditions.
Assay: At the end of the incubation period, cell cultures are fixed with a 50-50 mixture (v/v) acetone-methanol for 10 minutes at −20° C., followed by rehydration in PBS for 10 minutes at room temperature. After rehydration, cells are stained with DAPI (1 μg/ml) in PBS for 10 minutes at room temperature, followed by 3 washes with PBS. After staining, DAPI fluorescence is recorded (358 nm excitation/461 nm emission) with the 96-well plate reader Molecular Devices Spectramax M3; degree of small mole-cule-dependent proliferation inhibition is calculated from raw data assuming No Serum cells value as 100%.

KRas G12D mutant protein = KRas G12D mutant protein (Homo sapiens (Human), UniProt P01116, G12D); experiment: Ras GTP binding domain inhibition assay (labeled GTP); settings: 20 μM compound
Chain of KRas G12D mutant protein (P01116-2 other isoform, or with tags, fused parts or gaps G12D): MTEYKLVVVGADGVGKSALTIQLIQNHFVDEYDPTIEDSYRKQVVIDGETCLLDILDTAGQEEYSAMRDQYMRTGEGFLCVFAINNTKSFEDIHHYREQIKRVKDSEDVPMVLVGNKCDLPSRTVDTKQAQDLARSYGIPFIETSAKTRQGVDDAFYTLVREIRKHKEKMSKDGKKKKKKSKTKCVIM

KRas G12C mutant = KRas G12C mutant (Homo sapiens (Human), UniProt P01116, G12C); experiment: as above; settings: 20 μM compound
Chain of KRas G12C mutant (P01116-2 other isoform, or with tags, fused parts or gaps G12C): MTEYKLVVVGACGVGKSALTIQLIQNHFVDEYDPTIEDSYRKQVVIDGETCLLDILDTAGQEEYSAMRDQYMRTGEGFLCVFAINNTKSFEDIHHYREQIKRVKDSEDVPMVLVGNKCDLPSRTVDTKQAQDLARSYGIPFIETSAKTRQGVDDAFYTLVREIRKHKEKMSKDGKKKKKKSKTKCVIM
How it was run: (§1)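 Ni-plate capture of His-KRas (3-10 μg/ml, o/n, 4° C); Tris pH 7.5/MgCl2/DTT buffer, 1% DMSO. Cpd 20 μM or titration, 3 h RT. Cy3/Cy5-GTP 45 min RT, wash, fluorescence of bound GTP.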

[2] = biological target: KRas G12C/Q61H double mutant (Homo sapiens (Human), UniProt P01116, G12C/Q61H); experiment: as above; settings: 20 μM compound
Chain of KRas G12C/Q61H double mutant (P01116-2 other isoform, or with tags, fused parts or gaps G12C/Q61H): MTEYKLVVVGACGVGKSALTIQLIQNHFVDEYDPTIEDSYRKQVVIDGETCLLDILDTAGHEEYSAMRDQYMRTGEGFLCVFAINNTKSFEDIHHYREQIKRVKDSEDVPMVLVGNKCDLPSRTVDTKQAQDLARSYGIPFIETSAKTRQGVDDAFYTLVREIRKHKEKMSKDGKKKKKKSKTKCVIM
How it was run: as §1

[3] = biological target: KRas G12D/Q61H double mutant (Homo sapiens (Human), UniProt P01116, G12D/Q61H); experiment: as above; settings: for inhibition at 20 µM: 20 μM compound; for IC50: serial dilution, read-out: KRas G12D Q61H (classes E-H, IC50)
Chain of KRas G12D/Q61H double mutant (P01116-2 other isoform, or with tags, fused parts or gaps G12D/Q61H): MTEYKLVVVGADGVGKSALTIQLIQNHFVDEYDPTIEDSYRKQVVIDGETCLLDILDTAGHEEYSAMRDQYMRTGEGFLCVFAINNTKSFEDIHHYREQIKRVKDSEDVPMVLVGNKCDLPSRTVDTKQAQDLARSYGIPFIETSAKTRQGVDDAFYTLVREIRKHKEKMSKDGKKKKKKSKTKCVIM
How it was run: as §1

KRas Q61H mutant = KRas Q61H mutant (Homo sapiens (Human), UniProt P01116, Q61H); experiment: as above; settings: 20 μM compound
Chain of KRas Q61H mutant (P01116-2 other isoform, or with tags, fused parts or gaps Q61H): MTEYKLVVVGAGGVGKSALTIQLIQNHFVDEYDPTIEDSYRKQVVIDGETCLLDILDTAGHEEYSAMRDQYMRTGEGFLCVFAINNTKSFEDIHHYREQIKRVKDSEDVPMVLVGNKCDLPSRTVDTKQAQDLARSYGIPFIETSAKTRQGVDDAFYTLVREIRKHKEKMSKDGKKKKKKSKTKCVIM
How it was run: as §1

KRas wild type = KRas wild type (Homo sapiens (Human), UniProt P01116); experiment: as above; settings: 20 μM compound
Chain of KRas wild type (P01116-2 other isoform, or with tags, fused parts or gaps): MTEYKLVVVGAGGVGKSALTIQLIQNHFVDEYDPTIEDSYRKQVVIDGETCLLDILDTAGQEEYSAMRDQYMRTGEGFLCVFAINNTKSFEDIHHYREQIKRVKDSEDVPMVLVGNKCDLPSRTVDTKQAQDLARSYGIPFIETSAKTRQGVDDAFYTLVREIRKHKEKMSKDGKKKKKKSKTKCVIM
How it was run: as §1

[4] = read-out: % Inhibition at 20 μM KRas G12D
[5] = read-out: % Inhibition at 20 μM KRas G12C
[6] = read-out: % Inhibition at 20 μM KRas G12C Q61H
[7] = read-out: % Inhibition at 20 μM KRas G12D Q61H
[8] = read-out: % Inhibition at 20 μM KRas Q61H
[9] = read-out: % Inhibition at 20 μM KRas wild type
[10] = KRas G12D, read-out: % Inhibition at 20 μM of K-Ras mutant and wild-type protein, KRas G12D
[11] = KRas G12C, read-out: % Inhibition at 20 μM of K-Ras mutant and wild-type protein, KRas G12C
[12] = KRas G12C/Q61H double mutant, read-out: % Inhibition at 20 μM of K-Ras mutant and wild-type protein, KRas G12C Q61H
[13] = KRas G12D/Q61H double mutant, read-out: % Inhibition at 20 μM of K-Ras mutant and wild-type protein, KRas G12D Q61H
[14] = KRas Q61H, read-out: % Inhibition at 20 μM of K-Ras mutant and wild-type protein, KRas Q61H
[15] = KRas wild type, read-out: % Inhibition at 20 μM of K-Ras mutant and wild-type protein, KRas wild type

SMILES | IC50 [1] [nM] | inhibition at 20 µM (KRas G12D mutant protein; [10]) [%] | inhibition at 20 µM (KRas G12C mutant; [11]) [%] | inhibition at 20 µM [2, 12] [%] | inhibition at 20 µM [3, 13] [%] | inhibition at 20 µM (KRas Q61H mutant; [14]) [%] | inhibition at 20 µM (KRas wild type; [15]) [%] | inhibition at 10 µM [1] [%] | inhibition at 20 µM (KRas G12D mutant protein; [4]) [%] | inhibition at 20 µM (KRas G12C mutant; [5]) [%] | inhibition at 20 µM [2, 6] [%] | inhibition at 20 µM [3, 7] [%] | inhibition at 20 µM (KRas Q61H mutant; [8]) [%] | inhibition at 20 µM (KRas wild type; [9]) [%] | IC50 [3] [nM]
COCCNc1nc(-c2nccn2C)nc2sc(-c3ccc(OC)cc3)c(-c3ccccc3)c12 [drawing 1899] | 100 to 500 |  |  |  |  |  |  | 76 to 100 |  |  |  |  |  |  | 
COC(C)(C)c1ccc(-c2csc3c(O)nc(-c4nccn4C)nc23)cc1 [drawing 1920] |  |  |  |  |  |  |  | 76 to 100 |  |  |  |  |  |  | 
COc1cnc(-c2nccn2C)nc1O [drawing 1815] |  |  |  |  |  |  |  | 51 to 75 |  |  |  |  |  |  | 
Nc1nc(O)c2sc(-c3cccc(C(=O)N4CCC(O)C4)c3)cc2n1 (stereo not shown) [drawing 1845] |  |  |  |  |  |  |  | 1 to 25 |  |  |  |  |  |  | 
COc1cccc(-c2csc3c(O)nc(-c4ccccn4)nc23)c1 [drawing 2872] |  |  |  |  |  |  |  |  | 76 to 100 | 25 to 50 | 1 to 25 | 25 to 50 | 1 to 25 | 51 to 75 | 
CC(C)Oc1cnc(-c2ccccn2)nc1O [drawing 3481] |  | 51 to 75 | 51 to 75 | 76 to 100 | 51 to 75 | 51 to 75 | 25 to 50 |  |  |  |  |  |  |  | 
Oc1nc(-c2ccccn2)nc2c(-c3ccccn3)csc12 [drawing 2896] |  |  |  |  |  |  |  |  | 25 to 50 | 25 to 50 | 51 to 75 | 1 to 25 | 25 to 50 | 51 to 75 | 
Oc1nc(-c2ccccn2)nc2c(-c3cccc(C(F)(F)F)c3)csc12 [drawing 2873] |  |  |  |  |  |  |  |  | 51 to 75 | 25 to 50 | 25 to 50 | 25 to 50 | 51 to 75 | 25 to 50 | 
COc1ccc(F)cc1-c1csc2c(O)nc(-c3ccccn3)nc12 [drawing 2874] |  |  |  |  |  |  |  |  | 51 to 75 | 25 to 50 | 25 to 50 | 51 to 75 | 25 to 50 | 25 to 50 | 
COCCNc1nc(-c2ccccn2)nc2c1c(-c1ccccc1)nn2-c1ccccn1 [drawing 3538] |  | 51 to 75 | 51 to 75 | 76 to 100 | 51 to 75 | 51 to 75 | 51 to 75 |  |  |  |  |  |  |  | 
O=c1[nH]c(-c2ccccn2)nc2c([C@@H]3O[C@H](CO)[C@@H](O)[C@H]3O)csc12 [drawing 3527] |  | 25 to 50 | 51 to 75 | 25 to 50 | 25 to 50 | 51 to 75 | 25 to 50 |  |  |  |  |  |  |  | 
Oc1nc(-c2ccccn2)nc2c(-c3ccsc3)csc12 [drawing 2875] |  |  |  |  |  |  |  |  | 51 to 75 | 51 to 75 | 25 to 50 | 25 to 50 | 25 to 50 | 1 to 25 | 
Oc1nc(-c2ccccn2)nc2sc3c(c12)CCCNC3 [drawing 2852] |  |  |  |  |  |  |  |  | 51 to 75 | 51 to 75 | 25 to 50 | 25 to 50 | 25 to 50 | 25 to 50 | 
Oc1nc(-c2ccccn2)nc2c(-c3cc(F)cc(F)c3)csc12 [drawing 2900] |  |  |  |  |  |  |  |  | 51 to 75 | 51 to 75 | 51 to 75 | 51 to 75 | 51 to 75 | 25 to 50 | > 30000
Oc1nc(-c2ccccn2)nc(Oc2cccc(C(F)(F)F)c2)c1O [drawing 3558] |  | 51 to 75 | 51 to 75 | 76 to 100 | 51 to 75 | 51 to 75 | 1 to 25 |  |  |  |  |  |  |  | 
O=C(COCc1ccncc1)Nc1nc(-c2ccccn2)nc2sccc12 [drawing 2828] |  |  |  |  |  |  |  |  | 51 to 75 | 51 to 75 | 51 to 75 | 51 to 75 | 51 to 75 | 25 to 50 | 
O=C(CCc1nn[nH]n1)Nc1nc(-c2ccccn2)nc2sccc12 [drawing 2890] |  |  |  |  |  |  |  |  | 51 to 75 | 25 to 50 | 51 to 75 | 51 to 75 | 51 to 75 | 51 to 75 | 
COc1cc(-c2csc3c(O)nc(-c4ccccn4)nc23)cnc1C(F)(F)F [drawing 2884] |  |  |  |  |  |  |  |  | 51 to 75 | 51 to 75 | 51 to 75 | 51 to 75 | 51 to 75 | 51 to 75 | 
O=C(c1csc2c(O)nc(-c3ccccn3)nc12)N1CCNC(c2ccc(O)cc2)C1 (stereo not shown) [drawing 2808] |  |  |  |  |  |  |  |  | 51 to 75 | 51 to 75 | 76 to 100 | 76 to 100 | 76 to 100 | 76 to 100 | 5000 to 10000
CC(C)(O)c1ccc(-c2csc3c(O)nc(-c4ccccn4)nc23)c(F)c1 [drawing 2880] |  |  |  |  |  |  |  |  | 51 to 75 | 51 to 75 | 51 to 75 | 51 to 75 | 51 to 75 | 51 to 75 | 
Oc1nc(-c2ccccn2)nc2c(-c3cccc4c3OCO4)csc12 [drawing 2849] |  |  |  |  |  |  |  |  | 25 to 50 | 25 to 50 | 25 to 50 | 51 to 75 | 51 to 75 | 25 to 50 | 
Oc1nc(-c2ccccn2)nc2sc3c(c12)CCNC3 [drawing 2851] |  |  |  |  |  |  |  |  | 76 to 100 | 25 to 50 | 51 to 75 | 51 to 75 | 51 to 75 | 51 to 75 | 
Oc1nc(-c2ccccn2)nc2c(-c3ccc(OC(F)F)cc3F)csc12 [drawing 2876] |  |  |  |  |  |  |  |  | 51 to 75 | 25 to 50 | 51 to 75 | 51 to 75 | 51 to 75 | 51 to 75 | 
COc1nc(-c2ccccn2)nc2c(C3CCCC3)csc12 [drawing 3470] |  | 25 to 50 | 25 to 50 | 51 to 75 | 51 to 75 | 76 to 100 | 25 to 50 |  |  |  |  |  |  |  | 
OCC1(c2ccc(-c3nc(-c4ccccn4)nc(O)c3Oc3ccccc3)cc2)CC1 [drawing 3534] |  | 25 to 50 | 51 to 75 | 76 to 100 | 51 to 75 | 76 to 100 | 1 to 25 |  |  |  |  |  |  |  | 
CN1CCN(c2nc(-c3ccccn3)nc3scc(C(=O)NCCc4cnc(O)nc4)c23)CC1 [drawing 2899] |  |  |  |  |  |  |  |  | 51 to 75 | 1 to 25 | 51 to 75 | 25 to 50 | 51 to 75 | 1 to 25 | > 30000

Continued, in another order:

IC50 [1] [nM] | inhibition at 20 µM (KRas G12D mutant protein; [10]) [%] | inhibition at 20 µM (KRas G12C mutant; [11]) [%] | inhibition at 20 µM [2, 12] [%] | inhibition at 20 µM [3, 13] [%] | inhibition at 20 µM (KRas Q61H mutant; [14]) [%] | inhibition at 20 µM (KRas wild type; [15]) [%] | SMILES | inhibition at 10 µM [1] [%] | inhibition at 20 µM (KRas G12D mutant protein; [4]) [%] | inhibition at 20 µM (KRas G12C mutant; [5]) [%] | inhibition at 20 µM [2, 6] [%] | inhibition at 20 µM [3, 7] [%] | inhibition at 20 µM (KRas Q61H mutant; [8]) [%] | inhibition at 20 µM (KRas wild type; [9]) [%] | IC50 [3] [nM]
100 to 500 |  |  |  |  |  |  | Cc1sc2c(O)nc(-c3nccn3C)nc2c1-c1cccc(C(F)(F)F)c1 [drawing 1901] | 76 to 100 |  |  |  |  |  |  | 
 | 51 to 75 | 25 to 50 | 25 to 50 | 51 to 75 | 51 to 75 | 1 to 25 | Cc1sc2c(O)nc(-c3ccccn3)nc2c1-c1ccncc1 [drawing 3497] |  |  |  |  |  |  |  | 
 | 51 to 75 | 25 to 50 | 51 to 75 | 51 to 75 | 76 to 100 | 25 to 50 | CC(C)Cc1csc2c(O)nc(-c3ccccn3)nc12 [drawing 3494] |  |  |  |  |  |  |  | 

From patent publication US10940139B2, “Compounds that interact with the Ras superfamily for the treatment of cancers, inflammatory diseases, rasopathies, and fibrotic disease” (Shy Therapeutics LLC, priority 2017, dated 2021)
